Measurements reported in patent US8835147B2, “Cellular production of glucaric acid through recombinant expression of uronate dehydrogenase and myo-inositol oxygenase” (Massachusetts Institute of Technology, priority 2008, dated 2014).
Several values for one entry are separate records, joined by “and”; a condition that tells them apart may be missing. Equal values may be shown once. Read-outs that look alike come from different tables or passages of the source.

Assays:
MIOX from hog kidney = molecular target: T1, MIOX from hog kidney (Sus scrofa, UniProt Q8WN98); conditions: cited from earlier work; for inhibition of MIOX activity: at high concentrations, reported previously (30, 31); for inhibition of MIOX from hog kidney in vitro: reported (30, 31)
T1 sequence (Q8WN98 1-282): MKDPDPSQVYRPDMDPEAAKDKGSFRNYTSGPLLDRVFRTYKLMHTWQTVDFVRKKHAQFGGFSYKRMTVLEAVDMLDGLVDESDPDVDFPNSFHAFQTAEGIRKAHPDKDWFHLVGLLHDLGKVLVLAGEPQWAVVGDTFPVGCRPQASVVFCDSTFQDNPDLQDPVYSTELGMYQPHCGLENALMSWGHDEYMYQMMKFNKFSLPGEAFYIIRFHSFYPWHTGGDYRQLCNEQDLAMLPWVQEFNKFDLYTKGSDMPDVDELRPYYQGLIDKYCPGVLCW

[1] = molecular target: T2, uronate dehydrogenase from A. tumefaciens (Agrobacterium fabrum, UniProt Q7CRQ0); test: Kinetic analysis of purified Udh (initial NADH generation at 340 nm); type: biochemical, Agrobacterium tumefaciens str. C58; conditions: for kcat / Km: purified 6×His Udh, 0 to 10 mM substrate, 1.2 mM NAD^+
T2 construct: 6xHis (C); made in house; host or cells: E. coli BL21 (DE3)
Protocol: (§1) The udh genes from genomic DNA of A. tumefaciens, P. putida, and P. syringae were amplified using primers ATuEQ-F/R, PPuEQ-F/R, and PSuEQ-F/R as listed in Table 4. The PCR products were digested with SacI and HindIII and inserted into the same sites of pET21b containing a 6×His-Tag to construct pETATu, pETPPu, and pETPSu, respectively (Table 4). These plasmids were used to transform E. coli BL21 (DE3) to use for protein expression. The recombinant E. coli BL21 strains were cultivated at 30° C., 250 rpm for 6 hours after IPTG induction. Protein purification was carried out using the ProBond™ Purification System as described by the manufacturer (Invitrogen Corp, Carlsbad, Calif., USA). SDS-PAGE (sodium dodecyl sulfate-polyacrylamide gel electrophoresis) was performed as described in Sambrook et. al. (35). Enzyme activities on substrates of purified proteins were measured by monitoring initial NADH generation at 340 nm and room temperature. Kinetic analysis on glucuronate and galacturonate was carried out using 0 to 10 mM glucuronate or galacturonate and 1.2 mM NAD^+ in 100 mM Tris-HCl, pH 8.0. Kinetic analysis on NAD^+ was performed using 0 to 2 mM NAD^+ and 10 mM glucuronate in 100 mM Tris-HCl, pH 8.0. A series of enzymatic assays were conducted to estimate the initial activity as a function of starting substrate concentration. […] Nonlinear least-squares regression analyses were performed via the Gauss-Newton method as implemented using the intrinsic Matlab® function nlinfit.

[2] = molecular target: T3, uronate dehydrogenase from P. syringae (Pseudomonas syringae pv. tomato, UniProt Q888H1); test: as above; type: biochemical, Pseudomonas syringae pv. tomato str. DC3000; conditions: purified 6×His Udh, 0 to 10 mM substrate, 1.2 mM NAD^+
T3 construct: 6xHis (C); made in house; host or cells: E. coli BL21 (DE3)
T3 sequence (Q888H1 whole entry): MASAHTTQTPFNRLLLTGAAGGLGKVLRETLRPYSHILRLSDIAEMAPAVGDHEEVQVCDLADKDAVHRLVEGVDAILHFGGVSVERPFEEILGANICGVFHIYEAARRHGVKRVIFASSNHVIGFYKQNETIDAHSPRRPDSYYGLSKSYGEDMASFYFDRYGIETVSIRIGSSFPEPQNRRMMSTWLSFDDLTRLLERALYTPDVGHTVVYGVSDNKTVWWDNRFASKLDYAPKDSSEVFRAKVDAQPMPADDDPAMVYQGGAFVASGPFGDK
Protocol: as §1

[3] = molecular target: T4, uronate dehydrogenase from P. putida (Pseudomonas putida, UniProt Q88NN6); test: as above; type: biochemical, Pseudomonas putida KT2440; conditions: purified 6×His Udh, 0 to 10 mM substrate, 1.2 mM NAD^+
T4 construct: 6xHis (C); made in house; host or cells: E. coli BL21 (DE3)
T4 sequence (Q88NN6 whole entry): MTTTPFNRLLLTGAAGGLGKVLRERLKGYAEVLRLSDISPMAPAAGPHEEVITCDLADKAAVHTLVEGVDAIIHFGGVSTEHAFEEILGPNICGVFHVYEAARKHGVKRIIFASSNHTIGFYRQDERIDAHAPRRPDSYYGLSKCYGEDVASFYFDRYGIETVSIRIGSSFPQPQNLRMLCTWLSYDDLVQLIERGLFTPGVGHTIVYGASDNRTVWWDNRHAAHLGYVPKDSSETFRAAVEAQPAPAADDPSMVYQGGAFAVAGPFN
Protocol: as §1

E. coli = E. coli growth and glucose consumption with added organic acid salts; type: cell-based, Escherichia coli; conditions: added at concentrations as high as 10 g/L; data not shown
[4] = molecular target: T5, uronate dehydrogenase (Udh) of P. syringae (Pseudomonas syringae pv. tomato, UniProt Q888H1); test: Udh activity in crude E. coli lysates (NADH generation at 340 nm); type: biochemical; conditions: crude E. coli lysates containing the P. syringae udh gene; data not shown
T5 construct: made in house; host or cells: E. coli (DH10B or BL21(DE3)); crude lysate, not purified
T5 sequence (Q888H1 whole entry): as the sequence (Q888H1 whole entry) above
Protocol: Assays for uronate dehydrogenase activity were performed by monitoring NADH co-factor generation at 340 nm as described previously (35, 40). The reaction mixture contained 100 mM sodium phosphate buffer (pH 8.0), 2.5 mM glucuronic acid, 0.9 mM NAD^+, and bacterial lysate prepared as described above.
Bacterial lysates for enzymatic analysis were prepared by the freeze-thaw method. E. coli strains harboring udh genes were grown overnight in LB medium containing 0.1 mM IPTG (Isopropyl β-D-1-thiogalactopyranoside). Pellets were re-suspended in 1 mg/mL lysozyme solution and incubated on ice for 30 min. The suspensions were frozen in liquid nitrogen then thawed in a 37° C. water bath. This step was repeated five times. Cell lysates were centrifuged at 14,000 rpm at 4° C. for 15 min, and the supernatant was used for enzymatic analysis. Udh activities on glucuronate were measured by monitoring NADH (nicotinamide adenine dinucleotide, reduced) generation at 340 nm (38). The reaction mixture was consisted of 2.5 mM glucuronate, 0.9 mM NAD^+ (nicotinamide adenine dinucleotide), and 100 mM sodium phosphate buffer. The reaction was initiated by the addition of lysate to the reaction mixture at room temperature, and monitored. […] The total protein concentration was determined using the Bradford method (Bradford (1976) Anal Biochem 72:248-54). […]

[5] = Thermal stability of purified Udhs (30 minutes at temperature, then standard assay); type: physicochemical; conditions: purified Udh, FIG. 10b
Protocol: The impact of temperature was evaluated in two ways. First, the thermal stability was examined by exposing enzyme preparations to various temperatures for 30 minutes, then performing the enzyme assay under standard conditions. […] The activity remained near 80% of maximum after exposure of the A. tumefaciens preparation to 37° C., while the corresponding activities for both of the other enzymes was below 20% of maximum. The stability profiles for both Pseudomonas enzymes were similar to one another. Finally, enzyme activity was evaluated for assays conducted under increasing temperatures. These activities followed a general trend of increasing activity with increasing temperature between 4 and 42° C., which is consistent with an Arrhenius-type dependence of the catalytic rate constant on temperature (FIG. 10c).

[6] = 100 mM Tris-HCl pH 8.0, room temperature

## N[C@@H](CS)C(=O)O [cysteine]
MIOX from hog kidney
  inhibition of MIOX activity: inhibited

## O=C(O)[C@H]1O[C@@H](O)[C@H](O)[C@@H](O)[C@@H]1O [Glucuronate, glucuronate]
[1]
  kcat (highest rate constant): 190 s⁻¹
[1]; glucuronate as substrate
  kcat of A. tumefaciens enzyme relative to the Pseudomonas enzymes: more than 2 fold
[1]; [6]
  kcat: 194 ± 12 s⁻¹ and 193.90 ± 11.84 s⁻¹
[1]; pH 8.0
  Km: 370 ± 120 µM
  kcat: 1.9 ± 0.12 10^2 · 1/s
[1]; unit not given
  kcat (highest rate constant): 1.9×10^2
[2]; [6]
  kcat: 74 ± 3 s⁻¹ and 73.77 ± 3.13 s⁻¹
[2]; pH 8.0
  Km: 280 ± 70 µM
  kcat: 0.7 ± 0.03 10^2 · 1/s
[3]; [6]
  kcat: 55 ± 3 s⁻¹ and 54.57 ± 2.60 s⁻¹
[3]; pH 8.0
  Km: 250 ± 70 µM
  kcat: 0.5 ± 0.03 10^2 · 1/s
MIOX from hog kidney
  inhibition of MIOX from hog kidney in vitro: not

## O=C(O)[C@@H](O)[C@@H](O)[C@H](O)[C@@H](O)C(=O)O [D-glucaric acid]
MIOX from hog kidney
  inhibition of MIOX from hog kidney in vitro: inhibited

## O=C([O-])[C@@H](O)[C@@H](O)[C@H](O)[C@@H](O)C(=O)[O-].[K+].[K+] [potassium glucarate]
E. coli
  E. coli growth and glucose consumption: not observed to be affected

## O=C[C@H](O)[C@@H](O)[C@H](O)[C@H](O)C(=O)[O-].[Na+] [sodium glucuronate]
E. coli
  E. coli growth and glucose consumption: not observed to be affected

## NC(=O)c1ccc[n+]([C@@H]2O[C@H](COP(=O)([O-])OP(=O)(O)OC[C@H]3O[C@@H](n4cnc5c(N)ncnc54)[C@H](O)[C@@H]3O)[C@@H](O)[C@H]2O)c1 [NAD^+, nicotinamide adenine dinucleotide]
[4]
  utilization as a co-factor: utilized

## [Fe+2] [Fe^2+]
MIOX from hog kidney
  inhibition of MIOX activity: inhibited

## O=C[C@H](O)[C@H]1OC(=O)[C@@H](O)[C@H]1O [D-glucuronolactone]
MIOX from hog kidney
  inhibition of MIOX from hog kidney in vitro: not

## NC(=O)c1ccc[n+]([C@@H]2O[C@H](COP(=O)([O-])OP(=O)(O)OC[C@H]3O[C@@H](n4cnc5c(N)ncnc54)[C@H](OP(=O)(O)O)[C@@H]3O)[C@@H](O)[C@H]2O)c1 [NADP^+]
[4]
  utilization as a co-factor: not

## O=C(O)[C@H]1O[C@H](O)[C@H](O)[C@@H](O)[C@H]1O [Galacturonate, galacturonate]
[1]; [6]
  kcat: 92 ± 14 s⁻¹ and 91.85 ± 14.26 s⁻¹
[1]; pH 8.0
  Km: 160 ± 120 µM
  kcat: 0.9 ± 0.14 10^2 · 1/s
[2]; [6]
  kcat: 24 ± 1 s⁻¹ and 24.02 ± 0.73 s⁻¹
[2]; pH 8.0
  Km: 40 µM
  kcat: 0.2 ± 0.01 10^2 · 1/s
[3]; [6]
  kcat: 30 ± 3 s⁻¹ and 30.08 ± 3.12 s⁻¹
[3]; pH 8.0
  Km: 100 ± 60 µM
  kcat: 0.3 ± 0.03 10^2 · 1/s

B1: A. tumefaciens Udh: 6×-His tagged uronate dehydrogenase from A. tumefaciens str. C58 (SEQ ID NO:24), expressed in E. coli and purified (protein, listed as Agrobacterium tumefaciens)
chain: MKRLLVTGAAGQLGRVMRERLAPMAEILRLADLSPLDPAGPNEECVQCDLADANAVNAMVAGCDGIVHLGGISVEKPFEQILQGNIIGLYNLYEAARAHGQPRIVFASSNHTIGYYPQTERLGPDVPARPDGLYGVSKCFGENLARMYFDKFGQETALVRIGSCTPEPNNYRMLSTWFSHDDFVSLIEAVFRAPVLGCPVVWGASANDAGWWDNSHLGFLGWKPKDNAEAFRRHITETTPPPDPNDALVRFQGGTFVDNPIFKQS
modifications: 6xHis tag
[5]
  activity after exposure to 37° C. for 30 minutes: ~80 % of maximum
